The subject of test [1] is Brevibacterium lactofermentum KFCC-10680. Briefly: α-Aminobutyric acid resistance: growth on minimal medium containing α-aminobutyric acid. Particulars: strain KFCC-10680, cultivation at 30° C. for 6 days. It counts as cell-based.
Test [2] concerns Brevibacterium lactofermentum CJJA22. Described as above. It counts as cell-based. The settings on record: strain printed CJJA21; α-aminobutyric acid 20 g/l; cultivation at 30° C. for 6 days.
For test [3], the system named is Brevibacterium lactofermentum KFCC-10680. Particulars: strain KFCC-10680, cultivation at 30° C. for 6 days.
For test [4], the system named is Brevibacterium lactofermentum CJJA21. The settings on record: strain CJJA21; sodium azide 800 mg/l; cultivation at 30° C. for 6 days.

We go through 2 molecules from patent publication US7192760B2 (priority 2000, dated 2007).

Molecules are shown by their SMILES. Read-outs that look alike come from different tables or passages of the source.

Turning to `CCC(N)C(=O)O` (racemic) [α-aminobutyric acid, D,L-α-amino-n-butyric acid], the growth result in test [1] (α-aminobutyric acid 5 g/l) is listed as “+”; in test [1] (α-aminobutyric acid 10 g/l) it was “−”; in test [1] (α-aminobutyric acid 15 g/l), “−”; in test [1] (α-aminobutyric acid 20 g/l) it was “−”; in test [2] it was “−”.

As to `[N-]=[N+]=[N-]` [Sodium azide, sodium azide], the growth result is on record as “+” in test [3] (sodium azide 100 mg/l); “+” in test [3] (sodium azide 200 mg/l); “−” in test [3] (sodium azide 300 mg/l); “−” in test [3] (sodium azide 500 mg/l); “−” in test [3] (sodium azide 800 mg/l); “−” in test [4].
